# Patent US20260355196A1, “INHIBITORS AND DEGRADERS OF PIP4K PROTEIN” (Larkspur Biosciences, Inc., priority 2023, published 2026)
# Target: T1, PIP4K2C (Homo sapiens, UniProt Q8TBX8)
# T1 sequence (Q8TBX8 1-421): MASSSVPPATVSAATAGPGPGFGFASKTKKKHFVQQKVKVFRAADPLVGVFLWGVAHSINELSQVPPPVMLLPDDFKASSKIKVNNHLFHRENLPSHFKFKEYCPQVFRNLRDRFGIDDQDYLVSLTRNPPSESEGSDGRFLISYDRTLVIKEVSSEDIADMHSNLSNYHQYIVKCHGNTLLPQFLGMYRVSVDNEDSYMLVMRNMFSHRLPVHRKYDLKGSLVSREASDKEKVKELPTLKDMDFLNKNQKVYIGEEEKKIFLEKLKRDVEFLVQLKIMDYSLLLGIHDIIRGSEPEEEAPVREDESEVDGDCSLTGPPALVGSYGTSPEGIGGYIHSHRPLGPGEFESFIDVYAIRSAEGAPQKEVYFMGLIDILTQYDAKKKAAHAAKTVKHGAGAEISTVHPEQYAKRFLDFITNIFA
# Test: HiBiT PIP4K2C degradation assay in MOLT-4 cells (endogenous PIP4K2C C-terminally tagged with HiBiT)
# Type: cell-based
# Set-up: untagged in primary human PBMCs and monocyte-derived dendritic cells
# Conditions: 6 hours of incubation time, rather than 24 hours; MOLT-4, top concentration 10 micromolar; read-out: HiBIT-degradation MOLT4 PIP4k2C DC50 (6 hours, marked *)
# How it was run: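 DC50 derived by Hill fit of luminescence from Nano-Glo HiBiT lytic detection. Cells were HiBiT knock-in MOLT-4 (C-terminal tag on endogenous PIP4K2C), exposed 6 h or 24 h at 37 C to compound, top concentration 10 micromolar, 3-fold steps, 10 points, duplicates.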
row,DC50 [nM],SMILES
1,< 500,"O=C1CCC(Nc2ccc(C3CCN(CCC4CCN(C(=O)[C@@H]5CCC[C@H](Nc6ncc(F)c(-c7cccc(-n8ccccc8=O)c7)n6)C5)CC4)CC3)c(F)c2)C(=O)N1 (stereo partly drawn) [Compound 308, 3-((3-fluoro-4-(1-(2-(1-((1R,3S)-3-((5-fluoro-4-(3-(2-oxopyridin-1(2H)-yl)phenyl)pyrimidin-2-yl)amino)cyclohexane-1-carbonyl)piperidin-4-yl)ethyl)piperidin-4-yl)phenyl)amino)piperidine-2,6-dione]"

# Same assay, conditions: 24 hours incubation, MOLT-4, top concentration 10 micromolar; read-out: HiBIT-degradation MOLT4 PIP4k2C 24 hours DC50
row,DC50 [nM],SMILES
1,< 500,"Cn1c(=O)n(C2CCC(=O)NC2=O)c2ccc(C3CCN(C4CCN(CCC(=O)N5CCC(Nc6ncc(Cl)c(-c7cccc(-c8ccc(F)cc8)c7)n6)CC5)CC4)CC3)cc21 (centres unmarked) [Compound 300, 3-(5-(1′-(3-(4-((5-chloro-4-(4′-fluoro-[1,1′-biphenyl]-3-yl)pyrimidin-2-yl)amino)piperidin-1-yl)-3-oxopropyl)-[1,4′-bipiperidin]-4-yl)-3-methyl-2-oxo-2,3-dihydro-1H-benzo[d]imidazol-1-yl)piperidine-2,6-dione]"
2,< 500,"Cn1c(=O)n(C2CCC(=O)NC2=O)c2ccc(C3CCN(CC4CCN(CC(=O)N[C@H]5CC[C@H](Nc6ncc(F)c(-c7cccc(-n8ccccc8=O)c7)n6)CC5)CC4)CC3)cc21 (stereo partly drawn) [Compound 301, trans-2-(4-((4-(1-(2,6-dioxopiperidin-3-yl)-3-methyl-2-oxo-2,3-dihydro-1H-benzo[d]imidazol-5-yl)piperidin-1-yl)methyl)piperidin-1-yl)-N-(4-((5-fluoro-4-(3-(2-oxopyridin-1(2H)-yl)phenyl)pyrimidin-2-yl)amino)cyclohexyl)acetamide]"
3,< 500,"O=C1CCC(n2c(=O)oc3cc(C4CCN(CC5CCN(CC(=O)N6CCC(Nc7ncc(F)c(-c8cccc(-n9ccccc9=O)c8)n7)CC6)CC5)CC4)ccc32)C(=O)N1 (centres unmarked) [Compound 303, 3-(6-(1-((1-(2-(4-((5-fluoro-4-(3-(2-oxopyridin-1(2H)-yl)phenyl)pyrimidin-2-yl)amino)piperidin-1-yl)-2-oxoethyl)piperidin-4-yl)methyl)piperidin-4-yl)-2-oxobenzo[d]oxazol-3 (2H)-yl)piperidine-2,6-dione]"
4,< 500,"Cn1nc(C2CCC(=O)NC2=O)c2ccc(C3CCN(CC4CCN(CC(=O)N[C@H]5CC[C@H](Nc6ncc(F)c(-c7cccc(-n8ccccc8=O)c7)n6)CC5)CC4)CC3)cc21 (stereo partly drawn) [Compound 304, trans-2-(4-((4-(3-(2,6-dioxopiperidin-3-yl)-1-methyl-1H-indazol-6-yl)piperidin-1-yl)methyl)piperidin-1-yl)-N-(4-((5-fluoro-4-(3-(2-oxopyridin-1(2H)-yl)phenyl)pyrimidin-2-yl)amino)cyclohexyl)acetamide]"
5,< 500,"O=C1CCC(Nc2ccc(N3CCC(N4CCC(C(=O)N[C@H]5CC[C@H](Nc6ncc(F)c(-c7cccc(-n8ccccc8=O)c7)n6)CC5)CC4)CC3)c(F)c2)C(=O)N1 (stereo partly drawn) [Compound 305, trans-1′-(4-((2,6-dioxopiperidin-3-yl)amino)-2-fluorophenyl)-N-(4-((5-fluoro-4-(3-(2-oxopyridin-1(2H)-yl)phenyl)pyrimidin-2-yl)amino)cyclohexyl)-[1,4′-bipiperidine]-4-carboxamide]"
6,> 5000,"O=C1CCC(Nc2ccc(C3CCN(CCC4CCN(C(=O)[C@H]5CCC[C@@H](Nc6ncc(F)c(-c7cccc(-n8ccccc8=O)c7)n6)C5)CC4)CC3)c(F)c2)C(=O)N1 (stereo partly drawn) [Compound 309, 3-((3-fluoro-4-(1-(2-(1-((1S,3R)-3-((5-fluoro-4-(3-(2-oxopyridin-1(2H)-yl)phenyl)pyrimidin-2-yl)amino)cyclohexane-1-carbonyl)piperidin-4-yl)ethyl)piperidin-4-yl)phenyl)amino)piperidine-2,6-dione]"
7,< 500,"O=C1CCC(Nc2ccc(C3CCN(CCC4CCN(C(=O)[C@@H]5CCC[C@H](Nc6ncc(F)c(-c7cccc(-n8ccccc8=O)c7)n6)C5)CC4)CC3(F)F)c(F)c2)C(=O)N1 (stereo partly drawn) [Compound 310, 3-[4-[3,3-difluoro-1-[2-[1-[(1R,3S)-3-[[5-fluoro-4-[3-(2-oxo-1-pyridyl)phenyl]pyrimidin-2-yl]amino]cyclohexanecarbonyl]-4-piperidyl]ethyl]-4-piperidyl]-3-fluoro-anilino]piperidine-2,6-dione]"
8,< 500,"O=C1CCC(Nc2ccc(C3CCN(CCC4CCN(C(=O)[C@H]5CCC[C@@H](Nc6ncc(F)c(-c7cccc(-n8ccccc8=O)c7)n6)C5)CC4)CC3(F)F)c(F)c2)C(=O)N1 (stereo partly drawn) [Compound 311, 3-((4-(3,3-difluoro-1-(2-(1-((1S,3R)-3-((5-fluoro-4-(3-(2-oxopyridin-1(2H)-yl)phenyl)pyrimidin-2-yl)amino)cyclohexane-1-carbonyl)piperidin-4-yl)ethyl)piperidin-4-yl)-3-fluorophenyl)amino)piperidine-2,6-dione]"
9,< 500,"Cn1c(=O)n(C2CCC(=O)NC2=O)c2ccc(C3CCN(CC4CCN(CC(=O)N5CCC(Nc6ncc(F)c(-c7cccc(-n8ccccc8=O)c7)n6)CC5)CC4)CC3)cc21 (centres unmarked) [Compound 312, 3-(5-(1-((1-(2-(4-((5-fluoro-4-(3-(2-oxopyridin-1(2H)-yl)phenyl)pyrimidin-2-yl)amino)piperidin-1-yl)-2-oxoethyl)piperidin-4-yl)methyl)piperidin-4-yl)-3-methyl-2-oxo-2,3-dihydro-1H-benzo[d]imidazol-1-yl)piperidine-2,6-dione]"
10,< 500,"O=C1CCC(Nc2ccc(C3CCN(CC4CCN(CC(=O)N[C@H]5CC[C@H](Nc6ncc(F)c(-c7cccc(-n8ccccc8=O)c7)n6)CC5)CC4)CC3)c(F)c2)C(=O)N1 (stereo partly drawn) [Compound 313, trans-2-(4-((4-(4-((2,6-dioxopiperidin-3-yl)amino)-2-fluorophenyl)piperidin-1-yl)methyl)piperidin-1-yl)-N-(4-((5-fluoro-4-(3-(2-oxopyridin-1(2H)-yl)phenyl)pyrimidin-2-yl)amino)cyclohexyl)acetamide]"
11,< 500,"O=C1CCC(Nc2ccc(C3CCN(CC4CCN(CC(=O)N5CCC(Nc6ncc(F)c(-c7cccc(-n8ccccc8=O)c7)n6)CC5)CC4)CC3)c(F)c2)C(=O)N1 (centres unmarked) [Compound 314, 3-((3-fluoro-4-(1-((1-(2-(4-((5-fluoro-4-(3-(2-oxopyridin-1(2H)-yl)phenyl)pyrimidin-2-yl)amino)piperidin-1-yl)-2-oxoethyl)piperidin-4-yl)methyl)piperidin-4-yl)phenyl)amino)piperidine-2,6-dione]"
12,< 500,"Cn1nc(C2CCC(=O)NC2=O)c2ccc(C3CCN(CC4CCN(CC(=O)N5CCC(Nc6ncc(F)c(-c7cccc(-n8ccccc8=O)c7)n6)CC5)CC4)CC3)cc21 (centres unmarked) [Compound 315, 3-(6-(1-((1-(2-(4-((5-fluoro-4-(3-(2-oxopyridin-1(2H)-yl)phenyl)pyrimidin-2-yl)amino)piperidin-1-yl)-2-oxoethyl)piperidin-4-yl)methyl)piperidin-4-yl)-1-methyl-1H-indazol-3-yl)piperidine-2,6-dione]"
13,< 500,"O=C1CCC(Nc2ccc(N3CCC(CCN4CCC(C(=O)N[C@H]5CC[C@H](Nc6ncc(F)c(-c7cccc(-n8ccccc8=O)c7)n6)CC5)CC4)CC3)c(F)c2)C(=O)N1 (stereo partly drawn) [Compound 316, trans-1-[2-[1-[4-[(2,6-dioxo-3-piperidyl)amino]-2-fluoro-phenyl]-4-piperidyl]ethyl]-N-[4-[[5-fluoro-4-[3-(2-oxo-1-pyridyl)phenyl]pyrimidin-2-yl]amino]cyclohexyl]piperidine-4-carboxamide]"
14,< 500,"O=C1CCC(n2c(=O)oc3cc(N4CCC(N5CCC(C(=O)N[C@H]6CC[C@H](Nc7ncc(F)c(-c8cccc(-n9ccccc9=O)c8)n7)CC6)CC5)CC4)ccc32)C(=O)N1 (stereo partly drawn) [Compound 317, trans-1′-(3-(2,6-dioxopiperidin-3-yl)-2-oxo-2,3-dihydrobenzo[d]oxazol-6-yl)-N-(4-((5-fluoro-4-(3-(2-oxopyridin-1(2H)-yl)phenyl)pyrimidin-2-yl)amino)cyclohexyl)-[1,4′-bipiperidine]-4-carboxamide]"
15,< 500,"O=C1CCC(Nc2ccc(C3CCN(CC4CCN(C(=O)[C@H]5CC[C@H](Nc6ncc(F)c(-c7cccc(-n8ccccc8=O)c7)n6)CC5)CC4)CC3)c(F)c2)C(=O)N1 (stereo partly drawn) [Compound 318, trans-3-((3-fluoro-4-(1-((1-(4-((5-fluoro-4-(3-(2-oxopyridin-1(2H)-yl)phenyl)pyrimidin-2-yl)amino)cyclohexane-1-carbonyl)piperidin-4-yl)methyl)piperidin-4-yl)phenyl)amino)piperidine-2,6-dione]"
16,< 500,"O=C1CCC(Nc2ccc(N3CCN([C@H]4CC[C@H](C(=O)N[C@H]5CC[C@H](Nc6ncc(F)c(-c7cccc(-n8ccccc8=O)c7)n6)CC5)CC4)CC3)c(F)c2)C(=O)N1 (stereo partly drawn) [Compound 319, trans-trans-4-(4-(4-((2,6-dioxopiperidin-3-yl)amino)-2-fluorophenyl)piperazin-1-yl)-N-(4-((5-fluoro-4-(3-(2-oxopyridin-1(2H)-yl)phenyl)pyrimidin-2-yl)amino)cyclohexyl)cyclohexane-1-carboxamide]"
